Assay results published in US11484032B2, “Compositions for inhibition of insect sensing” (Vanderbilt University, priority 2011, dated 2022).
pEC50: −log10 of the molar value.

What was measured:
[1] = target: T1, Orco 28 + Orco (Anopheles gambiae, UniProt Q7QCC7); assay: Activity against insect odorant sensory receptors, Orco 28 + Orco (Table 1); format: cell-based; conditions: potentiator mode
T1 construct: expressed in transfected cells
T1 sequence (Q7QCC7 1-478): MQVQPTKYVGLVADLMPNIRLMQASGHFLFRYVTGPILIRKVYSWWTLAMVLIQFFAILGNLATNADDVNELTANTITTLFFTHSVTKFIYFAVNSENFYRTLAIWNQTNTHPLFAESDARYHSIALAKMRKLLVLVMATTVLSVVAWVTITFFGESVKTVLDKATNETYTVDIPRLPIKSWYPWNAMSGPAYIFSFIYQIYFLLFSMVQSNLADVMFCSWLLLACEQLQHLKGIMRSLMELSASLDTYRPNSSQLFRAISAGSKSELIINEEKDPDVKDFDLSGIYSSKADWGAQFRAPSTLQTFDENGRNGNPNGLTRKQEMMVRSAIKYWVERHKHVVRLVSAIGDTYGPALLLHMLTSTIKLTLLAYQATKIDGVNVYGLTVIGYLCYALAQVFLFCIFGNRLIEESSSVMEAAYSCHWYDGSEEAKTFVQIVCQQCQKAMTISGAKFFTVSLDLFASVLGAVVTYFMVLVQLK
Description: (§1) The activity against insect odorant sensory receptors was evaluated for various disclosed compounds, and the data were collected in Table 1.

[2] = target: T2, AgORco (Anopheles gambiae, UniProt Q7QCC7); assay: Whole-cell patch clamp, HEK293 cells stably expressing AgORco alone; format: cell-based; conditions: for whole-cell current response: AgORco alone cells, holding potential −60 mV
T2 construct: expressed in transfected cells
T2 sequence (Q7QCC7 1-478): T1 sequence (Q7QCC7 1-478)
Description: (§2) Currents from OR-expressing HEK293 cells were amplified with an Axopatch 200b Amplifier (Axon Instruments) and digitized through a Digidata 1322A (Axon Instruments). Electrophysiological data was recorded and analyzed using pCLAMP 10 (Axon Instruments). Electrodes were fabricated from quartz tubing (Sutter Instruments) and pulled to 4-6 MiΩ for whole cell recording. Electrodes were filled with internal solution (120 mM KCl, 30 mM D-glucose, 10 mM HEPES, 2 mM MgCl2, 1.1 mM EGTA, and 0.1 CaCl2) (pH 7.35, 280 mOsm). External (bath) solution contained 130 mM NaCl, 34 mM D-glucose, 10 mM HEPES, 1.5 mM CaCl2), 1.3 mM KH2PO4, and 0.5 MgSO4 (pH 7.35, 300 mOsm). Compounds were diluted in external solution and locally perfused to the recording cell using Perfusion Pencil (Automate Scientific) and controlled by a ValveLink 8.2 controller (Automate Scientific). Whole cell recordings were sampled at 10 kHz and filtered at 5 kHz. Outside-out patches were obtained using 10-15MΩ electrodes pulled from standard glass capillaries (World Precision Instruments) and fire-polished with an MF-830 micro forge (Narishige). Single channel recordings were sampled at 20 kHz. Recordings were reduced to 1 kHz and low-pass filtered at 500 Hz for display and analysis using QuB (SUNY at Buffalo).
(§3) To test the hypothesis that VUAA1 directly agonized AgORco, whole-cell patch clamp responses were examined in AgORco+AgOR10 expressing cells as well as HEK293 cells stably expressing AgORco alone. […] The VUAA1-dependent currents in AgORco+AgOR10 cells resembled those resulting from application of benzaldehyde, an orthosteric agonist of AgOR10 (FIG. 3C) (Wang, 2010; Carey, 2010). […] To investigate the specificity of VUAA1 agonism, the inventors transiently transfected HEK cells with the AgORco orthologs of Drosophila melanogaster and Heliothis virescens, DmORco and HvOR2 respectively.

[3] = target: T3, AgORco+AgOR10 (Anopheles gambiae, UniProt Q7QCC7); assay: Whole-cell patch clamp, HEK293 cells expressing AgORco+AgOR10; format: cell-based; conditions: AgORco+AgOR10 cells; for whole-cell current response: holding potential −60 mV
T3 construct: expressed in transfected cells
T3 sequence (Q7QCC7 1-478): T1 sequence (Q7QCC7 1-478)
Description: as §2, §3

[4] = target: T1, Orco 28 + Orco; assay: Ca2+ imaging, cells expressing Orco + OR28 (Table 1 head "Orco 28 + Orco"); format: cell-based; conditions: for Orco 28 + Orco Antagonist % Reduction: antagonist mode; for Orco 28 + Orco Potentiator % increase: potentiator mode
Description: as §1

[5] = target: T3, AgORco+AgOR10; assay: Fluo-4 Ca2+ imaging, HEK293 cells expressing Orco+AgOR10; format: cell-based; set-up: Orco 10 + Orco Angatonist % Reduction / Orco 10 + Orco Agonist % of control: concentration or dose not given beside the values; conditions: for Orco 10 + Orco Angatonist % Reduction: antagonist mode; for Orco 10 + Orco Potentiator % increase: potentiator mode
Text: (§4) For transient transfections, ORs were cloned into pCl (Promega) and transfected into Flp-In™ T-REx™293 cell lines (Invitrogen) with Fu GENE6 (Roche). For the creation of stable cell lines, a cell culture expression vector capable of expressing Orco in conjunction with a conventional OR, pcDNA5/FRT/TO (Invitrogen) was modified to create two individual expression cassettes each under the control of a separate CMV/Tet02 promoter and a BGH poly-adenylation signal. Cells (as above) were transfected with the modified pcDNA5 plasmid along with POG44 (a Flp recombinase expression plasmid) to facilitate site-specific recombination. Stable cell lines were selected using Hygromycin B (Invitrogen). Cells were maintained in DMEM (Invitrogen) supplemented with 10% Tetracycline-free FBS (HyClone) and 15 ng/ml Blasticidin. For fluorometric Ca2+ measurements, stable lines expressing ORs of interest were seeded at 20,000 cells/well in black wall, poly-lysine coated 384-well cell culture plates (Greiner) and treated with […] tetracycline (Sigma) overnight to induce OR expression. Cells were dye-loaded with 1.8 uM Fluo-4 AM (Molecular Probes), 2.5 mM Probenecid (Molecular Probes) in assay buffer (20 mM HEPES, IX HBSS) for 45 minutes at 37° C. in 5% CO2 prior to each assay. Ca^2+ mobilization was assayed in an FDSS6000 (Hamamatsu). Baseline readings were taken for 20 s before automated addition of compound previously diluted in DMSO and assay buffer. Ratios were described as Maximum/Minimum response and each response was normalized to the maximum responder.
As part of an ongoing, cell based calcium imaging screen for novel small-molecule modulators of AgORs that might disrupt olfactory-driven mosquito behaviors (Rinker et al manuscript in preparation), the inventors identified a number of compounds that activated AgOR10+AgORco-expressing human embryonic kidney (HEK293) cells. One of these compounds, (FIG. 3 A) denoted here as VUAA1, elicited activity consistent with allosteric agonism and was pursued for its novel properties. The identity of VUAA1 was verified using high-resolution mass spectrometry (HRMS) as well as ^1H and ^13C NMR. […] As AgORco was the common element among these functional responses, the inventors postulated that VUAA1 was a potential AgORco agonist.

[6] = target: T1, Orco 28 + Orco; assay: Orco 28 + Orco: agonist / antagonist / potentiator screen (Table 1); format: cell-based; conditions: for Orco 28 + Orco Potentiator % increase: potentiator mode; for Orco 28 + Orco Antagonist % Reduction: antagonist mode
Description: as §1

[7] = target: T4, AgORco+AgOR48 (Anopheles gambiae, UniProt Q7QCC7); assay: Ca2+ imaging, HEK cells expressing AgORco+AgOR48; format: cell-based; conditions: AgORco co-expressed with AgOR48; read-out: EC50
T4 construct: expressed in transfected cells
T4 sequence (Q7QCC7 1-478): T1 sequence (Q7QCC7 1-478)
Text: as §4
The ability of VUAA1 and its analogs to agonize representative ORco proteins from dipteran (Anopheles gambiae, AgORco), lepidopteran (Heliothis virescens, HvORco) and hymenopteran (Harpegnathos saltator, HsORco) orders was tested. […] Furthermore, the hierarchy of VUAA series potency was the same, irrespective of whether AgORco was co-expressed with AgOR65 or AgOR48 tuning ORs (FIG. 45). Without wishing to be bound by a particular theory, odorant ligands are thought to activate the complex via interaction with the tuning ORx and thereby affect ORco/ORx channel properties. […] These findings indicate VUAA-class OR co-modulators are viable compounds for further development as broad-spectrum insect control strategies, and VUAA4 can provide an advance in the pharmacological profile of VUAA-based compounds.

[8] = test system: An. gambiae early 4th instar larvae; assay: Larval mosquito movement assay (Daniovision-Ethovision); format: in vivo, Anopheles gambiae
Description: Next, the agonist activity of the VUAA compound class was tested to establish the involvement of AgORs in mediating larval ortho and klinokinesis in response to a series of semiochemicals using larval-stage An. gambiae mosquitoes. Mosquito larvae are aquatic, thus compounds can be delivered to individual early 4th instar larvae regardless of volatility. The assay currently utilizes 6-well plates and the Daniovision-Ethovision platform (Noldus Inc.) to simultaneously record and analyze 6 larvae, thereby providing modest rates of throughput and a high degree of reproducibility. In these assays, larval movements are automatically quantified over 5-minute period and control larvae consistently move the same number of times in the presence or absence of 0.1% DMSO (p=0.80, n=31) (FIGS. 42-43). Furthermore, the effects of the widely-used synthetic insect repellent N, N-diethyl-meta-toluamide (DEET) was tested and DEET was also observed to increase larval movements at and above a threshold concentration of 5×10^−4M (p=0.013, n=27) (FIGS. 42-43).

[9] = target: T5, AgOrco+AgOR65 (Anopheles gambiae, UniProt Q7QCC7); assay: Ca2+ imaging, HEK cells expressing AgOrco+AgOR65; format: cell-based
T5 construct: expressed in transfected cells
T5 sequence (Q7QCC7 1-478): T1 sequence (Q7QCC7 1-478)
Text: as §4
For VUAA0, a single methyl from the para position of the aniline ring (compound VUAA0, FIG. 44) in the VUAA1 structure was removed. […] In VUAA0.5, unsaturation was introduced at the para position of the aniline ring (VUAA0.5, FIG. 44). […] In VUAA2, the ethyl group of the aniline ring in VUAA1 was replaced with an isopropyl group (VUAA2, FIG. 44).

## CCn1c(CNC(=O)c2ccco2)nnc1SCC(=O)Nc1cc(C)c(C)cc1Br
[1]
  Orco 28 + Orco Potentiator % increase: 12.28%

## Nc1nc2c(nc(Br)n2[C@@H]2O[C@@H]3COP(=O)(O)O[C@H]3[C@H]2O)c(=O)[nH]1 [8-Br cGMP, 8-Br-cGMP]
[2]
  whole-cell current response: unable to evoke whole-cell currents
[3]
  whole-cell current response: unable to evoke whole-cell currents

## Nc1ncnc2c1nc(Br)n2[C@@H]1O[C@@H]2COP(=O)(O)O[C@H]2[C@H]1O [8-Br cAMP, 8-Br-cAMP]
[2]
  whole-cell current response: unable to evoke whole-cell currents
[3]
  whole-cell current response: unable to evoke whole-cell currents

## CCc1cccc(CC)c1-n1c(SCn2nnc3ccccc3c2=O)nnc1-c1cccnc1
[4]
  Orco 28 + Orco Antagonist % Reduction: 22.91%
[5]; Orco 10 + Orco
  Orco 10 + Orco Angatonist % Reduction: 25.00%

## COC(=O)c1ccccc1NC(=O)CSc1nnc(-c2cccnc2)n1C
[6]
  Orco 28 + Orco Potentiator % increase: 18.02%
[5]; 10 + Orco
  Orco 10 + Orco Potentiator % increase: 15.15%

## CCn1c(SCc2nc3ccccc3[nH]2)nnc1-c1cccnc1
[6]
  Orco 28 + Orco Potentiator % increase: 15.1%
[5]; 10 + Orco
  Orco 10 + Orco Potentiator % increase: 7.5%

## N.N.N.N.N.N.N.N.N.N.N.N.N.N.[Cl-].[Cl-].[Cl-].[Cl-].[Cl-].[Cl-].[O-2].[O-2].[Ru+3].[Ru+3].[Ru+4] [RR, Ruthenium Red]
[2]; AgORco cells, agonist VUAA1
  reduction of VUAA1 responses: 79.4±4.0%
[3]; agonist VUAA1
  reduction of VUAA1-elicited currents: 68.3±2.8%
[3]; agonist benzaldehyde
  reduction of benzaldehyde-elicited currents: 87.8±1.8%

## C=CCn1c(SCc2cc3c(cc2Cl)OCO3)nnc1-c1cccnc1
[6]
  Orco 28 + Orco Antagonist % Reduction: 16.91%

## CC(=O)n1ccc2ccc(C(=O)CSc3nnc(-c4cccnc4)n3C)cc21
[6]
  Orco 28 + Orco Antagonist % Reduction: 13.76%

## O=C(CSc1nnc(-c2cccnc2)n1-c1ccc(Br)cc1)c1c[nH]c2ccccc12
[4]
  Orco 28 + Orco Potentiator % increase: 19.9%

## Cc1cc(C)c(C(=O)CSc2nnc(-c3cccnc3)n2C)c(C)c1
[6]
  Orco 28 + Orco Antagonist % Reduction: 18.21%

## CC(C)c1ccc(NC(=O)CSc2nnc(-c3ccncc3)n2C2CC2)cc1 [VUAA4, 2-((4-cyclopropyl-5-(pyridin-4-yl)-4H-1,2,4-triazol-3-yl)thio)-N-(4-isopropylphenyl)acetamide]
[7]
  pEC50: 5.77
[8]; 10^−5M
  larval movement at the highest concentration: Reduced larval movement
[8]; 10^−8M
  larval movement response: absence of response
[8]; compared with DMSO controls or VUAA1
  larval behavioral (movement) response: higher levels of movement
[8]; in vivo
  lower response threshold compared to VUAA1: 5 fold
[8]; movements over 5-minute period
  threshold concentration for increased larval movement: 1 nM
[9]; AgOrco+AgOR65
  improvement in agonist potency compared to VUAA1: 10 fold
  maximum response relative to earlier VUAA compounds: additional improvement in the maximum response when compared to VUAA1
[9]; heteromeric OR channels AgOrco+AgOR65, read-out: EC50
  pEC50: 5.68

## Cn1c(SCC(=O)Nc2ccc(Br)cc2)nnc1-c1cccnc1
[6]
  Orco 28 + Orco Potentiator % increase: 11.23%

## CCOc1ccccc1-n1c(SCC(=O)c2cccc([N+](=O)[O-])c2)nnc1-c1cccnc1
[4]
  Orco 28 + Orco Antagonist % Reduction: 25.53%
[5]; Orco 10 + Orco
  Orco 10 + Orco Angatonist % Reduction: 22.28%

## CCn1c(SCC(=O)NCc2ccco2)nnc1-c1cccnc1
[6]
  Orco 28 + Orco Antagonist % Reduction: 10.89%
[5]; 10 + Orco
  Orco 10 + Orco Potentiator % increase: 10.23%

## O=C(CSc1nnc(-c2cccnc2)n1Cc1ccccc1)Nc1ccc(F)cc1
[4]
  Orco 28 + Orco Potentiator % increase: 16.12%

## Clc1ccc(-n2c(SC/C=C/c3ccccc3)nnc2-c2cccnc2)cc1
[4]
  Orco 28 + Orco Antagonist % Reduction: 20.56%
[5]; Orco 10 + Orco
  Orco 10 + Orco Potentiator % increase: 48.08%

## CCOc1ccccc1-n1c(SCC(N)=O)nnc1-c1cccnc1
[4]
  Orco 28 + Orco Potentiator % increase: 14.71%

## Cc1ccc(NC(=O)CSc2nnc(-c3cccnc3)n2C)c(C)c1
[6]
  Orco 28 + Orco Potentiator % increase: 12.63%

## NC(=O)CSc1nnc(-c2cccnc2)n1-c1ccccc1
[4]
  Orco 28 + Orco Potentiator % increase: 15.18%

## Cn1c(SCC(=O)Nc2ccc(F)cc2)nnc1-c1cccnc1
[6]
  Orco 28 + Orco Antagonist % Reduction: 11.09%

## CCn1c(SCC(=O)C(C)(C)C)nnc1-c1cccnc1
[6]
  Orco 28 + Orco Potentiator % increase: 17.24%
[5]; 10 + Orco
  Orco 10 + Orco Potentiator % increase: 12.1%

## O=C(CSc1nnc(-c2cccnc2)n1CCc1ccccc1)NCc1ccccc1
[4]
  Orco 28 + Orco Potentiator % increase: 15.9%
